Laboratory results as given in patent US20220380378A1 (ESSA Pharma, Inc., priority 2021, published 2022).

Each compound was assayed against T1, androgen receptor (AR) (Homo sapiens, UniProt P10275, T878A) (assay: Androgen-induced PSA (6.1 kb)-luciferase reporter assay in LNCaP cells (R1881 1 nM)). Details: 24 h, read-out: PSA-Luc IC50 Range.
T1 sequence (P10275 1-920 T878A): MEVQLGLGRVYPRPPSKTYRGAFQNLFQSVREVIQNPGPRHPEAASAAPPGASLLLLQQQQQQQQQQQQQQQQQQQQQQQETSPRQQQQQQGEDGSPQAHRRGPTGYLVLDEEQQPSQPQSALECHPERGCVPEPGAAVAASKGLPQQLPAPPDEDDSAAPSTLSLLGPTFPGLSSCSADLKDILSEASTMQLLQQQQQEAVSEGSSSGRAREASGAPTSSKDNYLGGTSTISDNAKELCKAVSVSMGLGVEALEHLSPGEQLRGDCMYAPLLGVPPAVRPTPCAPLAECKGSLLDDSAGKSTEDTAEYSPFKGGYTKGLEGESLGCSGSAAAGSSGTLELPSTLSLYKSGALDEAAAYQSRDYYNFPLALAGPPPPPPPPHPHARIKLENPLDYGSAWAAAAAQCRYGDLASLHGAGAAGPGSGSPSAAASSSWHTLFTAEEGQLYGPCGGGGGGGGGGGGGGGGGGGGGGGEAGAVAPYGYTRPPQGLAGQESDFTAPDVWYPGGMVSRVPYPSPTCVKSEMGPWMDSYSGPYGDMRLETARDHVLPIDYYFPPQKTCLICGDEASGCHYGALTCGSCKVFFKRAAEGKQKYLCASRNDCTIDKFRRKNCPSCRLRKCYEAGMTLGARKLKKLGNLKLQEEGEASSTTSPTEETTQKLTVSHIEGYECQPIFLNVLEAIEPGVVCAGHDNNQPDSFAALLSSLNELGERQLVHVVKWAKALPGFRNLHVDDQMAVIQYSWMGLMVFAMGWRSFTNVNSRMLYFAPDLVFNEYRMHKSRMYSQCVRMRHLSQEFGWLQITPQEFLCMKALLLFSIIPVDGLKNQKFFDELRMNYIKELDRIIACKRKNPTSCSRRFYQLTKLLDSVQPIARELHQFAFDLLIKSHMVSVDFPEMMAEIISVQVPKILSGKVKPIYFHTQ
Type: cell-based
Parameters: endogenous in cells; host or cells: LNCaP
Protocol: The PSA (6.1 kb)-luciferase reporter contains functional AREs (androgen response elements) to which AR binds in response to androgen to induce luciferase activity. LNCaP cells were transiently transfected with the PSA (6.1 kb)-luciferase reporter for 24 h, and then pretreated with vehicle (DMSO) or indicated concentration of representative compounds for one hour prior to the addition of synthetic androgen, R1881 (1 nM). After 24 h of incubation with R1881, the cells were harvested, and relative luciferase activities were determined (FIG. 1). To determine the IC50, treatments were normalized to vehicle control activity induced by R1881 (Table 2).
Luciferase Assay: Cells were lysed using Passive Lysis Buffer (Promega) and then collected into V-bottom 96-well tissue culture plates. Lysates were centrifuged at 4° C. for 5 minutes at 3000 rpm. To measure luminescence of LNCaP cell lysates the Firefly Luciferase Assay System (Promega) was employed, according to manufacturer's protocol. Relative luminescence units (RLU) in cell lysates were detected for 10 seconds using Promega GloMax-Multi Detection Luminometer (Promega). Values were normalized to protein content. GraphPad Prism graphing software was used to calculate IC50 values.
Statistical analyses were performed using GraphPad Prism (Version 6.01 for Windows; La Jolla, Calif., USA). Comparisons between treatment and control groups were compared using Two-Way ANOVA with post-hoc Dunnett's and Tukey's tests. Differences were considered statistically significant at P values less than 0.05.

Row | SMILES | IC50
1 | CC(C)(c1ccc(-c2ccc3c(c2)OCCN3S(C)(=O)=O)cc1)c1cc(Cl)c(OCCCl)c(C#N)c1 [Compound A228] | > 2000 nM
2 | CS(=O)(=O)N1CCC12CN(CCc1ccc3c(ccn3-c3cc(Cl)c(OCCCl)c(C#N)c3)c1)C2 [Compound A249] | > 2000 nM
3 | CC(C)(c1ccc(-c2ccc3c(NS(C)(=O)=O)nccc3n2)cc1)c1cc(Cl)c(OCCCl)c(C#N)c1 [Compound A278] | 500 to 2000 nM
4 | CC(C)(c1ccc(-c2ccc3nc(N)ncc3c2)cc1)c1cc(Cl)c(OCCCl)c(C#N)c1 [Compound A177] | 500 to 2000 nM
5 | Cn1nc(NC(=O)C(F)(F)F)cc1COc1ccc(C(C)(C)c2cc(Cl)c(OCCCl)c(C#N)c2)cc1 [Compound A127] | 500 to 2000 nM
6 | CC(CO)(c1ccc(OCc2ccnc(NS(C)(=O)=O)n2)cc1)c1cc(Cl)c(OCCCl)c(C#N)c1 (centres unmarked) [Compound A89] | > 2000 nM
7 | CCCOc1ncc(C(C)(C)c2ccc(OCc3ccnc(NS(C)(=O)=O)n3)cc2)cc1Cl [Compound A104] | > 2000 nM
8 | CS(=O)(=O)NC[C@H]1CC[C@H](COc2ccc3c(ccn3-c3cc(Cl)c(OCCCl)c(C#N)c3)c2)CC1 [Compound A209] | 500 to 2000 nM
9 | CS(=O)(=O)NC1CCN(CCOc2ccc3c(ccn3-c3cc(Cl)c(OCCCl)c(C#N)c3)c2)CC1 [Compound A220] | > 2000 nM
10 | CC(C)(c1ccc(OCc2ccnc(NS(C)(=O)=O)n2)cc1)c1cnc(N2CC3(CCC3)C2)c(Cl)c1 [Compound A106] | > 2000 nM
11 | CS(=O)(=O)N1C[C@H]2C[C@@H](Oc3ccc4c(ccn4-c4cc(Cl)c(OCCCl)c(C#N)c4)c3)C[C@H]2C1 [Compound A221] | 500 to 2000 nM
12 | CS(=O)(=O)NC12CC(NC(=O)c3ccc4c(ccn4-c4cc(Cl)c(OCCCl)c(C#N)c4)c3)(C1)C2 [Compound A134] | > 2000 nM
13 | CS(=O)(=O)N1CCN(CCc2ccc3c(ccn3-c3cc(Cl)c(OCCCl)c(C#N)c3)c2)CC1 [Compound A124] | 500 to 2000 nM
14 | CC(C)(c1ccc(-c2ccc3nc(NS(C)(=O)=O)oc3n2)cc1)c1cc(Cl)c(OCCCl)c(C#N)c1 [Compound A282] | > 2000 nM
15 | CC(C)(c1ccc(OCc2ccnc(NS(C)(=O)=O)n2)cc1)c1cc(F)c(N2CC3(CCC3)C2)c(C#N)c1 [Compound A240, N-(4-((4-(2-(3-cyano-5-fluoro-4-(2-azaspiro[3.3]heptan-2-yl)phenyl)propan-2-yl)phenoxy)methyl)pyrimidin-2-yl)methanesulfonamide] | > 2000 nM
16 | CC(c1cc(Cl)c(OCCCl)c(C#N)c1)n1ccc(-c2ccc3nc(NS(C)(=O)=O)ncc3c2)n1 (centres unmarked) [Compound A142] | > 2000 nM
17 | CC(C)(c1ccc(-c2cnc3c(c2)CCC(NS(C)(=O)=O)C3)cc1)c1cc(Cl)c(OCCCl)c(C#N)c1 (centres unmarked) [Compound A214] | 500 to 2000 nM
18 | CS(=O)(=O)NC12CC(NCc3ccc4c(ccn4-c4cc(Cl)c(OCCCl)c(C#N)c4)c3)(C1)C2 [Compound A145] | 500 to 2000 nM
19 | CS(=O)(=O)Nc1cnn(CCc2ccc3c(ccn3-c3cc(Cl)c(OCCCl)c(C#N)c3)c2)c1 [Compound A84] | > 2000 nM
20 | CC(C)(c1ccc(OCC23CCC(NS(C)(=O)=O)(C2)C3)cc1)c1cc(Cl)c(OCCCl)c(C#N)c1 [Compound A271] | 500 to 2000 nM
21 | CC(C)(c1ccc(OCc2ccnc(NS(C)(=O)=O)n2)cc1)c1cc(F)c(N2CC(O)C2)c(C#N)c1 [Compound A259] | < 500 nM
22 | CC(C)(c1ccc(OCc2nccnc2N)cc1)c1cc(Cl)c(OCCCl)c(C#N)c1 [Compound A95] | < 500 nM
23 | CS(=O)(=O)NC12CC(COc3ccc4c(c3)CCCC4c3cc(Cl)c(OCCCl)c(C#N)c3)(C1)C2 (centres unmarked) [Compound A247] | > 2000 nM
24 | CS(=O)(=O)N[C@H]1CC[C@H](COc2ccc3c(ccn3-c3cc(Cl)c(OCCCl)c(C#N)c3)c2)CC1 [Compound A58] | > 2000 nM
25 | CC(C)(c1ccc(-c2ccc3cnc(NS(C)(=O)=O)nc3c2)cc1)c1cc(Cl)c(OCCCl)c(C#N)c1 [Compound A121] | > 2000 nM

Row | SMILES | IC50
26 | CC(Oc1ccc2c(ccn2-c2cc(Cl)c(OCCCl)c(C#N)c2)c1)C1CN(S(C)(=O)=O)C1 (centres unmarked) [Compound A159] | 500 to 2000 nM
27 | CS(=O)(=O)N1CCC(COc2ccc3c(ccn3-c3cc(Cl)c(OCCCl)c(C#N)c3)c2)C1 (centres unmarked) [Compound A210] | 500 to 2000 nM
28 | CS(=O)(=O)NC12CC(CNc3ccc4c(ccn4-c4cc(Cl)c(OCCCl)c(C#N)c4)c3)(C1)C2 [Compound A146] | 500 to 2000 nM
29 | CS(=O)(=O)CCOc1c(Cl)cc(-n2ccc3cc(OCc4ccnc(NS(C)(=O)=O)n4)ccc32)cc1C#N [Compound A72] | > 2000 nM
30 | CC(C)(c1ccc(-c2cnc3nc(NS(C)(=O)=O)oc3c2)cc1)c1cc(Cl)c(OCCCl)c(C#N)c1 [Compound A257] | > 2000 nM
31 | CC(C)(c1ccc(-c2ccc3ncncc3c2)cc1)c1cc(Cl)c(OCCCl)c(C#N)c1 [Compound A110] | > 2000 nM
32 | Cn1nc(-c2cc(Cl)c(OCCCl)c(C#N)c2)c2ccc(OCc3ccnc(NS(C)(=O)=O)n3)cc21 [Compound A77] | > 2000 nM
33 | CC(C)(c1ccc(OCc2ccnc(NS(C)(=O)=O)n2)cc1)c1cc(Cl)c(OCCCCl)c(C#N)c1 [Compound A181] | 500 to 2000 nM
34 | CC(C)(c1ccc(-c2ccc3nc(NS(C)(=O)=O)nnc3c2)cc1)c1cc(Cl)c(OCCCl)c(C#N)c1 [Compound A108] | > 2000 nM
35 | CC(C)(c1ccc(-c2c[nH]c3nc(NS(C)(=O)=O)ncc23)cc1)c1cc(Cl)c(OCCCl)c(C#N)c1 [Compound A198] | 500 to 2000 nM
36 | CC(C)(c1ccc(OCC2CN(S(C)(=O)=O)C2)cc1)c1cc(Cl)c(OCCCl)c(C#N)c1 [Compound A151] | 500 to 2000 nM
37 | CS(=O)(=O)Nc1ncc2c(n1)CCN(Cc1ccc3c(ccn3-c3cc(Cl)c(OCCCl)c(C#N)c3)c1)C2 [Compound A154] | > 2000 nM
38 | CC(C)(c1ccc(-c2c[nH]c3c(NS(C)(=O)=O)ncnc23)cc1)c1cc(Cl)c(OCCCl)c(C#N)c1 [Compound A211] | > 2000 nM
39 | CC(C)(c1ccc(-c2ccc3c(NS(C)(=O)=O)ncnc3c2)cc1)c1cc(Cl)c(OCCCl)c(C#N)c1 [Compound A197] | > 2000 nM
40 | CS(=O)(=O)NCC1CCN1CCc1ccc2c(ccn2-c2cc(Cl)c(OCCCl)c(C#N)c2)c1 (centres unmarked) [Compound A248] | > 2000 nM
41 | CS(=O)(=O)Nc1nccc(COc2ccc(-n3ccc4c(Cl)c(OCCCl)c(C#N)cc43)cc2)n1 [Compound A26] | > 2000 nM
42 | CS(=O)(=O)Nc1nccc(COc2ccc3c(c2)C(c2cc(Cl)c(OCCCl)c(C#N)c2)CC3)n1 (centres unmarked) [Compound A31, N-(4-(((3-(3-chloro-4-(2-chloroethoxy)-5-cyanophenyl)-2,3-dihydro-1H-inden-5-yl)oxy)methyl)pyrimidin-2-yl)methanesulfonamide] | > 2000 nM
43 | CS(=O)(=O)N1CC(CCOc2ccc3c(ccn3-c3cc(Cl)c(OCCCl)c(C#N)c3)c2)C1 [Compound A225] | 500 to 2000 nM
44 | CC(C)(c1ccc(-c2ccc3c(c2)OCC(CNS(C)(=O)=O)O3)cc1)c1cc(Cl)c(OCCCl)c(C#N)c1 (centres unmarked) [Compound A230] | > 2000 nM
45 | CS(=O)(=O)N[C@@H]1CC[C@H](Oc2ccc3c(ccn3-c3cc(Cl)c(OCCCl)c(C#N)c3)c2)C1 [Compound A233] | 500 to 2000 nM
46 | CS(=O)(=O)NCC1CN(Cc2ccc3c(ccn3-c3cc(Cl)c(OCCCl)c(C#N)c3)c2)CCO1 (centres unmarked) [Compound A170] | > 2000 nM
47 | CS(=O)(=O)N1CCC(COc2ccc3c(ccn3-c3cc(Cl)c(OCCCl)c(C#N)c3)c2)CC1 [Compound A55] | > 2000 nM
48 | CC(C)(c1ccc(OCc2cnc(NS(C)(=O)=O)nc2N2CCCCC2)cc1)c1cc(Cl)c(OCCCl)c(C#N)c1 [Compound A99] | 500 to 2000 nM
49 | CS(=O)(=O)Nc1nccc(COc2ccc3c(-c4cc(Cl)c(OCCCl)c(C#N)c4)c[nH]c3c2)n1 [Compound A218] | > 2000 nM
50 | CC(C)(c1ccc(-c2ccc3oc(NS(C)(=O)=O)nc3n2)cc1)c1cc(Cl)c(OCCCl)c(C#N)c1 [Compound A281] | > 2000 nM
